The values below come from patent US10421718B2, “EBNA1 inhibitors and their method of use” (priority 2013, dated 2019).

Counter-ions that a name gives are not always drawn.

Broadly, the IC50 is the concentration that inhibits the measured activity by half. A lower IC50 goes with greater potency in that assay.

The target in this test is T1, His-EBNA1 (DNA binding domain of EBNA1, amino acids 459-607) (Epstein-Barr virus, UniProt P03211).
T1 construct: made in house; host or cells: E. coli
T1 sequence (P03211 459-607): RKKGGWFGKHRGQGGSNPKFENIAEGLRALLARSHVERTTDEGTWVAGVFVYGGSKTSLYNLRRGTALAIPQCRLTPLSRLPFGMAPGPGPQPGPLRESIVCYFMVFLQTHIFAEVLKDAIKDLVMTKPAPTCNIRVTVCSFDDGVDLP
Kind of test: Inhibition of 5′-biotin-oPL4624 binding to His-EBNA1 using Alpha Screen technology. The settings on record: Alpha Screen Activity (IC50, inhibition of 5′-biotin-oPL4624 binding to His-EBNA1), 15 nM His-EBNA1, 0.2 nM bt-oPL4624, 2 hr room temperature. As for the experimental part: Inhibition of 5′-biotin-oPL4624 binding to His-EBNA1 using Alpha Screen technology: Assays were performed using the DNA binding domain of EBNA1 (amino acids 459-607), which was His-tagged (His-EBNA1) and the self-complementary biotinylated (bt) oligonucleotide with the sequence 5′-bt-[…]-ATGCTACCC-3′ (bt-oPL4624). The protein was expressed in E. coli and purified according to Barwell, et al. (Barwell J A, Bochkarev A, Pfuetzner R A, Tong H, Yang D S, Frappier L, Edwards A M. (1995) Overexpression, purification, and crystallization of the DNA binding and dimerization domains of the Epstein-Barr virus nuclear antigen 1. J Biol Chem. 270: 20556-9.). The bt-oPL4624 oligonucleotide was purchased from Integrated DNA Technologies, Inc (IDT). AlphaScreen donor, acceptor beads and white, opaque 384-well assay plates were purchased from PerkinElmer, Inc.
Assays contained 15 nM His-EBNA1, 0.2 nM bt-oPL4624, 5 μg/mL AlphaScreen streptavidin donor beads and nickel chelate acceptor beads, and a series of concentrations of test compound ranging from 3.2 nM to 100 μM in a total volume of 40 μL assay buffer (25 mM Tris, pH 7.2, 160 mM NaCl, 1 mM MgCl2). His-EBNA1 (30 nM) and bt-oPL4624 (0.4 nM) were preincubated with 10 μg/mL nickel chelate AlphaScreen acceptor bead, or 10 μg/mL streptavidin AlphaScreen donor bead, respectively, for 30 minutes at room temperature in assay buffer. Twenty microliters of His-EBNA1/acceptor bead mix and bt-oPL4624/donor bead mix were transferred to assay plates containing […] of 1:3 serial dilutions of test compounds previously prepared in DMSO at concentrations ranging from 0.32 μM to 10 mM. Nonspecific binding was determined with 5 μg/mL AlphaScreen acceptor bead in the absence of His-EBNA1. After 2 hr incubation at room temperature, the AlphaScreen signal was measured on the Envision plate reader (PerkinElmer, Inc.) at 680 nm excitation and 570 nm emission. Inhibition values at each concentration of test compound were determined by setting 100% equal to raw data values in the absence of EBNA1 and 0% equal to the raw data values in the presence of EBNA1. Nonlinear regression fits of the inhibition values to a one-site dose-response equation were performed using GraphPad Prism.
Take `O=C(O)c1cccc(C#Cc2cccc3[nH]ccc23)c1-n1cccc1` [Entry 35, 3-[2-(1H-indol-4-yl)ethynyl]-2-(1H-pyrrol-1-yl)benzoic acid]: the IC50 was < 1 µM.

`O=C(O)c1cccc(C#CCNCc2ccccc2)c1-c1ccccc1` [Entry 157, 3-[3-(benzylamino)prop-1-yn-1-yl]-2-phenylbenzoic acid] gave an IC50 of 10 to 100 µM.

For the compound `O=C(O)c1cccc(C#Cc2ccc(F)cc2)c1-n1cccc1` [Entry 71, 3-[2-(4-fluorophenyl)ethynyl]-2-(1H-pyrrol-1-yl)benzoic acid], the IC50 lay in the range of 1 to 10 µM.

Regarding `Cn1cc(-c2c(C#Cc3cccc(O)c3)cccc2C(=O)O)cn1` [Entry 220, 3-((3-hydroxyphenyl)ethynyl)-2-(1-methyl-1H-pyrazol-4-yl)benzoic acid], the IC50 fell in the range of 1 to 10 µM.

In turn, `Cc1ccc(C)n1-c1c(C#Cc2ccncc2)cccc1C(=O)O` [Entry 192, 2-(2,5-dimethyl-pyrrol-1-yl)-3-pyridin-4-ylethynyl-benzoic acid] displayed an IC50 of 10 to 100 µM.

With `COc1cccc(-c2c(C#Cc3c[nH]c4ncccc34)cccc2C(=O)O)c1` [Entry 166, 2-(3-methoxyphenyl)-3-(2-{1H-pyrrolo[2,3-b]pyridin-3-yl}ethynyl)benzoic acid], the IC50 lay in the range of 10 to 100 µM.

`O=C(O)c1cccc(C#Cc2ccc3nccn3c2)c1-n1cccc1` [Entry 6, 3-(2-{imidazo[1,2-a]pyridin-6-yl}ethynyl)-2-(1H-pyrrol-1-yl)benzoic acid] registered an IC50 of 10 to 100 µM.

In the case of `COC(=O)c1c[nH]c2cc(-c3c(C#Cc4cscn4)cccc3C(=O)O)ccc12` [Entry 217, 2-(3-(Methoxycarbonyl)-1H-indol-6-yl)-3-(thiazol-4-ylethynyl)benzoic acid], the IC50 was in the range of 1 to 10 µM.

Consider `COc1ccc(C#Cc2cccc(C(=O)O)c2-n2cccc2)cc1` [Entry 67, 3-[2-(4-methoxyphenyl)ethynyl]-2-(1H-pyrrol-1-yl)benzoic acid], for which the IC50 lay in the range of 1 to 10 µM.

Compound `COc1cc(O)cc(-c2c(C#Cc3ccncc3)cccc2C(=O)O)c1` [Entry 186, 5′-hydroxy-3′-methoxy-6-pyridin-4-ylethynyl-biphenyl-2-carboxylic acid] gave an IC50 of 10 to 100 µM.

With `O=C(O)c1cccc(C#Cc2ccccc2)c1C1CC1` [Entry 123, 2-cyclopropyl-3-(2-phenylethynyl)benzoic acid], the IC50 is 1 to 10 µM.

The compound `O=C(O)c1cccc(C#Cc2cscn2)c1` [Entry 75, 3-[2-(1,3-thiazol-4-yl)ethynyl]benzoic acid] had a half-inhibitory concentration (IC50) of 10 to 100 µM.

On to `Cn1cc(-c2c(C#Cc3ccccc3)cccc2C(=O)O)cn1` [Entry 101, 2-(1-methyl-1H-pyrazol-4-yl)-3-(2-phenylethynyl)benzoic acid], for which the IC50 fell in the range of 1 to 10 µM.

`O=C(O)c1cc(F)cc(C#Cc2ccccc2)c1-n1cccc1` [Entry 61, 5-fluoro-3-(2-phenylethynyl)-2-(1H-pyrrol-1-yl)benzoic acid] yielded an IC50 of 10 to 100 µM.

`Cc1nc2cc(-c3c(C#Cc4cscn4)cccc3C(=O)O)ccc2s1` [Entry 173] came in with an IC50 of 10 to 100 µM.

With `C(#Cc1c[nH]c2ccccc12)c1cccc(-c2nnn[nH]2)c1` [Entry 284, 3-[3-(1H-tetrazol-5-yl)-phenylethynyl]-1H-indole], the IC50 was < 1 µM.

In turn, `Cn1ccc2ccc(-c3c(C#Cc4ccccc4)cccc3C(=O)O)cc21` [Entry 136, 2-(1-methyl-1H-indol-6-yl)-3-(2-phenylethynyl)benzoic acid] registered an IC50 of 1 to 10 µM.

As to `O=C(O)c1cccc(C#Cc2ccccc2)c1-c1ccc2c(c1)OCO2` [Entry 202, 2-benzo[1,3]dioxol-5-yl-3-phenylethynyl-benzoic acid], the IC50 fell in the range of 10 to 100 µM.

In turn, `O=C(O)c1cccc(C#Cc2ccncc2)c1-c1c[nH]c2ccccc12` [Entry 174, 2-(1H-indol-3-yl)-3-[2-(pyridin-4-yl)ethynyl]benzoic acid] came in with an IC50 of 1 to 10 µM.

Turning to `O=C(O)c1cccc(C#Cc2ccccc2)c1-n1cncn1` [Entry 296, 3-phenylethynyl-2-[1,2,4]triazol-1-yl-benzoic acid], the half-inhibitory concentration (IC50) lay within 10 to 100 µM.

In the case of `COc1cc(C#Cc2cccc(C(=O)O)c2)cc(C(N)=O)c1` [Entry 184, 3-(3-carbamoyl-5-methoxy-phenylethynyl)-benzoic acid], the IC50 lay within 10 to 100 µM.

Compound `O=C(O)c1cccc(C#Cc2ccccn2)c1` [Entry 90, 3-[2-(pyridin-2-yl)ethynyl]benzoic acid] registered an IC50 of 100 to 1000 µM.

Regarding `O=C(O)c1cccc(C#Cc2ccccc2)c1-c1ccc2sccc2c1` [Entry 132, 2-(1-benzothiophen-5-yl)-3-(2-phenylethynyl)benzoic acid], the IC50 fell in the range of 10 to 100 µM.

Consider `Nc1c(C#Cc2cccc(CO)c2)cccc1C(=O)O` [Entry 82, 2-amino-3-{2-[3-(hydroxymethyl)phenyl]ethynyl}benzoic acid], for which the IC50 was in the range of 1 to 10 µM.

`O=C(O)c1cccc(C#Cc2cccc(O)c2)c1-c1cn(S(=O)(=O)c2ccccc2)c2ccccc12` [Entry 268, 2-[1-(benzenesulfonyl)-1H-indol-3-yl]-3-[2-(3-hydroxyphenyl)ethynyl]benzoic acid] registered an IC50 of 10 to 100 µM.

Consider `O=C(O)c1cncc(C#Cc2ccc(F)cc2)c1-n1cccc1` [Entry 51], for which the IC50 was in the range of 1 to 10 µM.

Take `Nc1c(C#Cc2cccc3[nH]ccc23)cccc1C(=O)O` [Entry 79, 2-amino-3-[2-(1H-indol-4-yl)ethynyl]benzoic acid]: the IC50 is < 1 µM.

With `O=C(O)c1cccc(C#Cc2ccccc2)c1N1CC[C@H](O)C1` [Entry 105, (S)-2-(3-hydroxypyrrolidin-1-yl)-3-(phenylethynyl)benzoic acid], the IC50 lay within 100 to 1000 µM.

As for `CC(=O)Nc1cc(F)cc(C#Cc2cccc(C(=O)O)c2-c2ccc3cc[nH]c3c2)c1` [Entry 236, 3-((3-acetamido-5-fluorophenyl)ethynyl)-2-(1H-indol-6-yl)benzoic acid], the concentration for half-maximal inhibition (IC50) was < 1 µM.

As for `COc1ccc(C#Cc2cccc(C(=O)O)c2-c2ccc3[nH]c(C(=O)O)cc3c2)cc1` [Entry 255, 5-(2-carboxy-6-((4-methoxyphenyl)ethynyl)phenyl)-1H-indole-2-carboxylic acid], the IC50 is 10 to 100 µM.

As for `CNC(=O)c1cccc(C#Cc2cccc(C(=O)O)c2)c1` [Entry 287, 3-(3-methylcarbamoyl-phenylethynyl)-benzoic acid], the half-inhibitory concentration (IC50) was 10 to 100 µM.

Compound `O=C(NS(=O)(=O)N1CCOCC1)c1cccc(C#Cc2ccccc2)c1-n1cccc1` [Entry 115, N-(morpholine-4-sulfonyl)-3-(2-phenylethynyl)-2-(1H-pyrrol-1-yl)benzamide] displayed an IC50 of 100 to 1000 µM.

On to `O=C(O)c1cccc(C#Cc2ccccc2)c1N1CCC(C(=O)O)C1` (stereo not shown) [Entry 104, 1-(2-carboxy-6-(phenylethynyl)phenyl)pyrrolidine-3-carboxylic acid], for which the IC50 was 10 to 100 µM.

With `COc1cc(OC)cc(-c2c(C#Cc3ccncc3)cccc2C(=O)O)c1` [Entry 273, 2-(3,5-dimethoxyphenyl)-3-[2-(pyridin-4-yl)ethynyl]benzoic acid; trifluoroacetate salt], the IC50 lay in the range of 10 to 100 µM.

`COc1ccc(-c2c(C#Cc3ccccc3)cccc2C(=O)O)cn1` [Entry 126, 2-(6-methoxypyridin-3-yl)-3-(2-phenylethynyl)benzoic acid]: the IC50 lay in the range of 10 to 100 µM.

`Nc1ccc(C#Cc2cccc(C(=O)O)c2-c2ccc3cc[nH]c3c2)cc1` [Entry 208, 3-(4-amino-phenylethynyl)-2-(1H-indol-6-yl)-benzoic acid] showed an IC50 of 1 to 10 µM.

As to `O=C(O)c1cccc(C#Cc2cccc(O)c2)c1-c1ccc2cc[nH]c2c1` [Entry 266, 3-[2-(3-hydroxyphenyl)ethynyl]-2-(1H-indol-6-yl)benzoic acid], the IC50 was < 1 µM.

As to `COc1ccc(C#Cc2cccc(C(=O)O)c2-c2ccc3cc[nH]c3c2)cc1` [Entry 210, 2-(1H-indol-6-yl)-3-(4-methoxy-phenylethynyl)-benzoic acid], the IC50 fell in the range of 1 to 10 µM.

Consider `O=C(O)c1cccc(C#Cc2ccccc2)c1-n1cc(-c2cccnc2)nn1` [Entry 111, 3-(phenylethynyl)-2-(4-(pyridin-3-yl)-1H-1,2,3-triazol-1-yl)benzoic acid], for which the IC50 fell in the range of 10 to 100 µM.

Compound `O=C(O)c1cccc(C#Cc2ccncc2)c1-n1ccc2ccccc21` [Entry 291, 2-indol-1-yl-3-pyridin-4-ylethynyl-benzoic acid] displayed a half-maximal inhibitory concentration (IC50) of 10 to 100 µM.
